Assay: xn = mol fraction of the nth substance listed
Settings: Liquid, Pycnometric method

CCCCBr [1-bromobutane] + O=C=O
Settings	mass density [kg/m3]
322.7 K, 11600 kPa, x1 = 0.0683	826
322.7 K, 11640 kPa, x1 = 0.1495	987
322.7 K, 11680 kPa, x1 = 0.0989	884
322.7 K, 11910 kPa, x1 = 0.0461	797
322.7 K, 11910 kPa, x1 = 0.0683	832
322.7 K, 11990 kPa, x1 = 0.1495	990
322.7 K, 12130 kPa, x1 = 0.0989	890
322.7 K, 12220 kPa, x1 = 0.0683	838
322.7 K, 12290 kPa, x1 = 0.1495	994
322.7 K, 12570 kPa, x1 = 0.0683	845
322.7 K, 12610 kPa, x1 = 0.0989	897
322.7 K, 12640 kPa, x1 = 0.0461	814
322.7 K, 12660 kPa, x1 = 0.1495	997
322.7 K, 12900 kPa, x1 = 0.0683	850
322.7 K, 13010 kPa, x1 = 0.1495	1000
322.7 K, 13110 kPa, x1 = 0.0989	903
322.7 K, 13210 kPa, x1 = 0.0461	826
322.7 K, 13280 kPa, x1 = 0.0683	857
322.7 K, 13490 kPa, x1 = 0.1495	1004
322.7 K, 13640 kPa, x1 = 0.0989	910
322.7 K, 13730 kPa, x1 = 0.0683	864
322.7 K, 13820 kPa, x1 = 0.1495	1008
322.7 K, 13830 kPa, x1 = 0.0461	838
322.7 K, 13960 kPa, x1 = 0.0683	867
322.7 K, 14210 kPa, x1 = 0.0989	916
322.7 K, 14230 kPa, x1 = 0.1495	1011
322.7 K, 14620 kPa, x1 = 0.1495	1015
322.7 K, 14880 kPa, x1 = 0.0989	924
322.7 K, 15120 kPa, x1 = 0.1495	1018
322.7 K, 15160 kPa, x1 = 0.0989	926
327.6 K, 8820 kPa, x1 = 0.1495	922
327.6 K, 8950 kPa, x1 = 0.1495	924
327.6 K, 9080 kPa, x1 = 0.0245	359
327.6 K, 9100 kPa, x1 = 0.0989	786
327.6 K, 9110 kPa, x1 = 0.0245	362
327.6 K, 9140 kPa, x1 = 0.1495	927
327.6 K, 9170 kPa, x1 = 0.0245	369
327.6 K, 9220 kPa, x1 = 0.0245	375
327.6 K, 9230 kPa, x1 = 0.0989	791
327.6 K, 9270 kPa, x1 = 0.0245	382
327.6 K, 9330 kPa, x1 = 0.0245	389
327.6 K, 9340 kPa, x1 = 0.1495	930
327.6 K, 9350 kPa, x1 = 0.0683	677
327.6 K, 9360 kPa, x1 = 0.0461	555
327.6 K, 9380 kPa, x1 = 0.0245	396
327.6 K, 9380 kPa, x1 = 0.0461	559
327.6 K, 9380 kPa, x1 = 0.0683	680
327.6 K, 9390 kPa, x1 = 0.0461	563
327.6 K, 9390 kPa, x1 = 0.0989	796
327.6 K, 9420 kPa, x1 = 0.0245	401
327.6 K, 9430 kPa, x1 = 0.0461	569
327.6 K, 9460 kPa, x1 = 0.0245	406
327.6 K, 9470 kPa, x1 = 0.0461	577
327.6 K, 9470 kPa, x1 = 0.0683	688
327.6 K, 9490 kPa, x1 = 0.0461	584
327.6 K, 9520 kPa, x1 = 0.0245	414
327.6 K, 9520 kPa, x1 = 0.1495	933
327.6 K, 9540 kPa, x1 = 0.0989	801
327.6 K, 9560 kPa, x1 = 0.0461	591
327.6 K, 9570 kPa, x1 = 0.0683	696
327.6 K, 9580 kPa, x1 = 0.0245	423
327.6 K, 9650 kPa, x1 = 0.0245	431
327.6 K, 9650 kPa, x1 = 0.0461	599
327.6 K, 9700 kPa, x1 = 0.0683	705
327.6 K, 9700 kPa, x1 = 0.0989	806
327.6 K, 9710 kPa, x1 = 0.0461	606
327.6 K, 9710 kPa, x1 = 0.1495	936
327.6 K, 9720 kPa, x1 = 0.0245	440
327.6 K, 9760 kPa, x1 = 0.0461	615
327.6 K, 9790 kPa, x1 = 0.0245	449
327.6 K, 9830 kPa, x1 = 0.0461	623
327.6 K, 9830 kPa, x1 = 0.0683	714
327.6 K, 9860 kPa, x1 = 0.0245	459
327.6 K, 9890 kPa, x1 = 0.0989	811
327.6 K, 9890 kPa, x1 = 0.1495	939
327.6 K, 9920 kPa, x1 = 0.0461	631
327.6 K, 9950 kPa, x1 = 0.0245	469
327.6 K, 10000 kPa, x1 = 0.0683	723
327.6 K, 10010 kPa, x1 = 0.0461	640
327.6 K, 10030 kPa, x1 = 0.0245	480
327.6 K, 10050 kPa, x1 = 0.0245	484
327.6 K, 10060 kPa, x1 = 0.0245	486
327.6 K, 10070 kPa, x1 = 0.1495	942
327.6 K, 10080 kPa, x1 = 0.0989	817
327.6 K, 10120 kPa, x1 = 0.0461	649
327.6 K, 10190 kPa, x1 = 0.0683	733
327.6 K, 10240 kPa, x1 = 0.0461	658
327.6 K, 10290 kPa, x1 = 0.0989	822
327.6 K, 10310 kPa, x1 = 0.1495	945
327.6 K, 10360 kPa, x1 = 0.0461	668
327.6 K, 10380 kPa, x1 = 0.0683	742
327.6 K, 10500 kPa, x1 = 0.0461	678
327.6 K, 10510 kPa, x1 = 0.0989	828
327.6 K, 10560 kPa, x1 = 0.1495	949

From the NIST ThermoML archive (doi:10.1021/je900387e)
